From patent US20220106301A1, “ACETAMIDO-PHENYLBENZAMIDE DERIVATIVES AND METHODS OF USING THE SAME” (Athenex, Inc., priority 2020, published 2022)

target: CYP3A4 (Homo sapiens, UniProt P08684); experiment: Determination of CYP3A4 inhibitory activity (human liver microsome, Luciferin-IPA); conditions: CYP3A4 IC50 (nM), 37° C. 11 minutes
Summary of the method: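 Final compound concentrations 37, 111, 333, 1000 and 3000 nM; reaction at 37° C for 11 min, then luciferin detection reagent 5 min at room temperature with luminescence read-out. IC50 from nonlinear regression of dose-response.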

Sequence of CYP3A4 (P08684 whole entry): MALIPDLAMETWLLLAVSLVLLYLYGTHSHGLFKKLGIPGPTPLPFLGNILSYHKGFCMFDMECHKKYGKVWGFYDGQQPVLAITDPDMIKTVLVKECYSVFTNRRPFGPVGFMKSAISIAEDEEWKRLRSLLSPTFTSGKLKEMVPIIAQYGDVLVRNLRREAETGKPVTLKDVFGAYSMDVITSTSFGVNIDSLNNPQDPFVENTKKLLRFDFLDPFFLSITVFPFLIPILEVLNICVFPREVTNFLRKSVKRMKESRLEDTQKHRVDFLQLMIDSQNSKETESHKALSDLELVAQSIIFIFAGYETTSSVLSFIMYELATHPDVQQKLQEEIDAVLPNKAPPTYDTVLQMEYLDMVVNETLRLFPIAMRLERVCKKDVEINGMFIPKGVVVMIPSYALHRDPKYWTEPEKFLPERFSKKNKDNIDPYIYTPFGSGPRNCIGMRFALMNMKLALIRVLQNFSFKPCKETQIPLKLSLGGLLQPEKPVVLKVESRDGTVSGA

SMILES	IC50 [nM]
COC(=O)c1ccc(CN(CCc2ccc(NC(=O)c3cc(OC)c(OC)cc3NC(=O)c3cc(=O)c4ccccc4o3)cc2)Cc2cccc(-n3ccnc3)c2)cc1 [Compound 218]	100 to 250
COc1ccc(CN(CCc2ccc(NC(=O)c3cc(OC)c(OC)cc3NC(=O)c3cc(=O)c4ccccc4o3)cc2)Cc2cccc(-n3ccnc3)c2)cc1C#N [Compound 219]	100 to 250
COc1cncc(CN(CCc2ccc(NC(=O)c3cc(OC)c(OC)cc3NC(=O)c3cc(=O)c4ccccc4o3)cc2)Cc2ccc3c(c2)nnn3C)c1 [Compound 220]	100 to 250
COc1cc(NC(=O)c2cc(=O)c3ccccc3o2)c(C(=O)Nc2ccc(CCN(Cc3cccnc3)Cc3ccc4c(c3)nnn4C)cc2)cc1OC [Compound 221]	250 to 500
COc1cncc(CN(CCc2ccc(NC(=O)c3cc(OC)c(OC)cc3NC(=O)c3cc(=O)c4ccc(C)cc4o3)cc2)Cc2ccc3c(cnn3C)c2)c1 [Compound 222]	100 to 250
COc1cc(NC(=O)c2cc(=O)c3ccccc3o2)c(C(=O)Nc2ccc(CCN(Cc3cncc(O)c3)Cc3ccc4c(cnn4C)c3)cc2)cc1OC [Compound 223]	100 to 250
COc1cc(NC(=O)c2cc(=O)c3ccccc3o2)c(C(=O)Nc2ccc(CCN(Cc3ccc(N)nc3)Cc3ccc4c(cnn4C)c3)cc2)cc1OC [Compound 224]	> 1000
COc1cc(NC(=O)c2cc(=O)c3ccccc3o2)c(C(=O)Nc2ccc(CCN(Cc3ccc4c(cnn4C)c3)Cc3ccc[n+]([O-])c3)cc2)cc1OC [Compound 225]	> 1000
COc1cc(NC(=O)c2cc(=O)c3ccccc3o2)c(C(=O)Nc2ccc(CCN(Cc3ccc4c(cnn4C)c3)Cc3cccnc3N)cc2)cc1OC [Compound 226]	> 1000
COc1cc(NC(=O)c2cc(=O)c3ccccc3o2)c(C(=O)Nc2ccc(CCN(Cc3cncc(Cl)c3)Cc3ccc4c(cnn4C)c3)cc2)cc1OC [Compound 227]	500 to 1000
COc1cc(NC(=O)c2cc(=O)c3ccccc3o2)c(C(=O)Nc2ccc(CCN(Cc3ccc4c(cnn4C)c3)Cc3cnccc3O)cc2)cc1OC [Compound 228]	> 1000
COc1cc(NC(=O)c2cc(=O)c3ccccc3o2)c(C(=O)Nc2ccc(CCN(Cc3cccnc3)Cc3cnc(-c4ccccc4F)nc3)cc2)cc1OC [Compound 229]	250 to 500
COc1cncc(CN(CCc2ccc(NC(=O)c3cc(OC)c(OC)cc3NC(=O)c3cc(=O)c4ccccc4o3)cc2)Cc2cnc(-c3ccccc3F)nc2)c1 [Compound 230]	100 to 250
COc1cc(NC(=O)c2cc(=O)c3ccccc3o2)c(C(=O)Nc2ccc(CCN(Cc3ccc4c(cnn4C)c3)C(=O)OC(C)(C)C)cc2)cc1OC [Compound 231]	> 1000
COc1cc(NC(=O)c2cc(=O)c3ccccc3o2)c(C(=O)NCc2ccc(CN(Cc3ccc4c(cnn4C)c3)Cc3ccccc3-n3ccnc3)cc2)cc1OC [Compound 232]	< 100
COc1cc(NC(=O)c2cc(=O)c3ccccc3o2)c(C(=O)NCc2ccc(CN(Cc3cccc(-n4ccnc4)c3)Cc3ccc4c(cnn4C)c3)cc2)cc1OC [Compound 233]	100 to 250
COc1cc(NC(=O)c2cc(=O)c3ccccc3o2)c(C(=O)NCc2ccc(CN(Cc3cccnc3)Cc3ccc4c(cnn4C)c3)cc2)cc1OC [Compound 234]	100 to 250
COc1cncc(CN(Cc2ccc(CNC(=O)c3cc(OC)c(OC)cc3NC(=O)c3cc(=O)c4ccccc4o3)cc2)Cc2ccc3c(cnn3C)c2)c1 [Compound 235]	100 to 250
COc1cc(NC(=O)c2cc(=O)c3ccccc3o2)c(C(=O)NCc2ccc(CN(Cc3cccc(-c4cncs4)c3)Cc3ccc4c(cnn4C)c3)cc2)cc1OC [Compound 236]	> 1000
COc1cc(NC(=O)c2cc(=O)c3ccccc3o2)c(C(=O)NCc2ccc(CN(Cc3ccc(-n4ccnc4)cc3)Cc3ccc4c(cnn4C)c3)cc2)cc1OC [Compound 237]	100 to 250
COc1cc(NC(=O)c2cc(=O)c3ccccc3o2)c(C(=O)NCc2ccc(CN(Cc3ccc(-c4cncs4)cc3)Cc3ccc4c(cnn4C)c3)cc2)cc1OC [Compound 238]	> 1000
COc1cc(NC(=O)c2cc(=O)c3ccccc3o2)c(C(=O)Nc2ccc(CCN(Cc3cncc(OCC(C)C)c3)Cc3ccc4c(cnn4C)c3)cc2)cc1OC [Compound 239]	> 1000
COc1cc(NC(=O)c2cc(=O)c3ccccc3o2)c(C(=O)Nc2ccc(CCN(Cc3cncc(OCCN4CCOCC4)c3)Cc3ccc4c(cnn4C)c3)cc2)cc1OC [Compound 240]	250 to 500
COc1cc(NC(=O)c2cc(=O)c3ccccc3o2)c(C(=O)Nc2ccc(CCN(Cc3ccc(-n4ccnc4C)cc3)Cc3ccc4c(cnn4C)c3)cc2)cc1OC [Compound 241]	> 1000
COc1cc(NC(=O)c2cc(=O)c3ccccc3o2)c(C(=O)Nc2ccc(CCN(Cc3cccc(OC[C@@H]4CO[C@@](Cn5ccnc5)(c5ccc(Cl)cc5Cl)O4)c3)Cc3ccc4c(cnn4C)c3)cc2)cc1OC [Compound 242]	250 to 500
COc1cc(NC(=O)c2cc(=O)c3ccccc3o2)c(C(=O)Nc2ccc(CCN(Cc3ccc(-n4ccnc4C)cc3)Cc3cccc(-n4ccnc4)c3)cc2)cc1OC [Compound 243]	> 1000
COc1cc(NC(=O)c2cc(=O)c3ccccc3o2)c(C(=O)Nc2ccc(CCN(Cc3cncc(OCCN(C)C)c3)Cc3ccc4c(cnn4C)c3)cc2)cc1OC [Compound 244]	> 1000
COc1cc(NC(=O)c2cc(=O)c3ccccc3o2)c(C(=O)Nc2ccc(CCN(Cc3cccc(-n4ccnc4)c3)Cc3cccc(-n4ccnc4C)c3)cc2)cc1OC [Compound 245]	250 to 500
COc1cc(NC(=O)c2cc(=O)c3ccccc3o2)c(C(=O)Nc2ccc(CCN(Cc3cncc(OCCN)c3)Cc3ccc4c(cnn4C)c3)cc2)cc1OC [Compound 246]	> 1000
COc1cc(NC(=O)c2cc(=O)c3ccccc3o2)c(C(=O)Nc2ccc(CCN(Cc3cncc(O)c3)Cc3ccc4c(c3)c(C)nn4C)cc2)cc1OC [Compound 247]	100 to 250

The next lines start with the values.

IC50 [nM]	SMILES
250 to 500	CCn1ncc2cc(CN(CCc3ccc(NC(=O)c4cc(OC)c(OC)cc4NC(=O)c4cc(=O)c5ccccc5o4)cc3)Cc3cccnc3)ccc21 [Compound 248]
> 1000	COc1cc(NC(=O)c2cc(=O)c3ccccc3o2)c(C(=O)Nc2ccc(CCN(Cc3cccc(-n4ccnc4C)c3)Cc3ccc4c(cnn4C)c3)cc2)cc1OC [Compound 249]
100 to 250	COc1cc(NC(=O)c2cc(=O)c3ccccc3o2)c(C(=O)Nc2ccc(CCN(Cc3cccnc3)Cc3ccc(C)c4ncccc34)cc2)cc1OC [Compound 250]
> 1000	COc1cc(NC(=O)c2cc(=O)c3cc(C)ccc3o2)c(C(=O)Nc2ccc(CCN(Cc3ccc4c(cnn4C)c3)Cc3ccc4c(c3)nnn4C)cc2)cc1OC [Compound 251]
250 to 500	COc1cncc(CN(CCc2ccc(NC(=O)c3cc(OC)c(OC)cc3NC(=O)c3cc(=O)c4ccccc4o3)cc2)Cc2ccc3c(cnn3C(C)=O)c2)c1 [Compound 252]
500 to 1000	COc1cc(NC(=O)c2cc(=O)c3ccccc3o2)c(C(=O)Nc2ccc(CCN(Cc3cncc(C(C)C)c3)Cc3ccc4c(cnn4C)c3)cc2)cc1OC [Compound 253]
> 1000	COc1cc(NC(=O)c2cc(=O)c3ccccc3o2)c(C(=O)Nc2ccc(CCN(Cc3cncc(-c4ccccc4)c3)Cc3ccc4c(cnn4C)c3)cc2)cc1OC [Compound 254]
> 1000	COc1cc(NC(=O)c2cc(=O)c3cc(C)ccc3o2)c(C(=O)Nc2ccc(CCN(Cc3cncc(-c4ccccc4)c3)Cc3ccc4c(cnn4C)c3)cc2)cc1OC [Compound 255]
> 1000	Cn1ncc2cc(CNCCc3ccc(NC(=O)c4ccc(C(=O)O)cc4NC(=O)c4cc(=O)c5ccccc5o4)cc3)ccc21 [Compound 256]
> 1000	COC(=O)c1ccc(C(=O)Nc2ccc(CCN(Cc3ccc4c(cnn4C)c3)Cc3ccc4c(cnn4C)c3)cc2)c(NC(=O)c2cc(=O)c3ccccc3o2)c1 [Compound 257]
< 100	COC(=O)c1ccc(C(=O)Nc2ccc(CCN(Cc3cncc(OC)c3)Cc3cncc(OC)c3)cc2)c(NC(=O)c2cc(=O)c3ccccc3o2)c1 [Compound 258]
> 1000	COc1cncc(CN(CCc2ccc(NC(=O)c3ccc(C(=O)O)cc3NC(=O)c3cc(=O)c4ccccc4o3)cc2)Cc2ccc3c(cnn3C)c2)c1 [Compound 259]
< 100	COC(=O)c1ccc(C(=O)Nc2ccc(CCN(Cc3cccc(-n4ccnc4)c3)Cc3cccc(-n4ccnc4)c3)cc2)c(NC(=O)c2cc(=O)c3ccccc3o2)c1 [Compound 260]
> 1000	COc1cc2c(cc1OC)CN(CCc1ccc(NC(=O)c3ccc(C(=O)O)cc3NC(=O)c3cc(=O)c4ccccc4o3)cc1)CC2 [Compound 261]
< 100	COc1cc2c(cc1OC)CN(CCc1ccc(NC(=O)c3ccc(C(=O)OCCCn4ccnc4)cc3NC(=O)c3cc(=O)c4ccccc4o3)cc1)CC2 [Compound 262]
> 1000	COC(=O)c1ccc(C(=O)Nc2ccc(CCN(Cc3ccc(OC)c(OC)c3)Cc3ccc(OC)c(OC)c3)cc2)c(NC(=O)c2cc(=O)c3ccccc3o2)c1 [Compound 263]
> 1000	COc1ccc(CN(CCc2ccc(NC(=O)c3ccc(C(=O)O)cc3NC(=O)c3cc(=O)c4ccccc4o3)cc2)Cc2ccc(OC)c(OC)c2)cc1OC [Compound 264]
> 1000	COc1ccc(CN(CCc2ccc(NC(=O)c3ccc(C(=O)OCc4cccnc4)cc3NC(=O)c3cc(=O)c4ccccc4o3)cc2)Cc2ccc(OC)c(OC)c2)cc1OC [Compound 265]
> 1000	Cn1ncc2cc(CN(CCc3ccc(NC(=O)c4ccc(C(=O)OCc5cncs5)cc4NC(=O)c4cc(=O)c5ccccc5o4)cc3)Cc3ccc4c(cnn4C)c3)ccc21 [Compound 266]
> 1000	Cn1ncc2cc(CN(CCc3ccc(NC(=O)c4ccc(C(=O)O)cc4NC(=O)c4cc(=O)c5ccccc5o4)cc3)Cc3ccc4c(cnn4C)c3)ccc21 [Compound 267]
> 1000	Cn1ncc2cc(CN(CCc3ccc(NC(=O)c4ccc(C(=O)OCc5cccnc5)cc4NC(=O)c4cc(=O)c5ccccc5o4)cc3)Cc3ccc4c(cnn4C)c3)ccc21 [Compound 268]
> 1000	COC(=O)c1ccc(C(=O)Nc2ccc(CCN(C)Cc3ccc4c(cnn4C)c3)cc2)c(NC(=O)c2cc(=O)c3ccccc3o2)c1 [Compound 270]
> 1000	CN(CCc1ccc(NC(=O)c2ccc(C(=O)O)cc2NC(=O)c2cc(=O)c3ccccc3o2)cc1)Cc1ccc2c(cnn2C)c1 [Compound 271]
